Data reported in patent US11603373B2, “TDO2 and IDO1 inhibitors” (Genentech, Inc., priority 2017, dated 2023).
pEC50: −log10 of the molar value.

What was measured:
[1] = molecular target: T1, IDO1 (A172+IFNg cells, high IDO expressing cells) (Homo sapiens, UniProt P14902); assay: NFK GreenScreen cell assay, inhibition of IDO in A172+IFNg cells; assay type: cell-based; conditions: read-out: IDO cell Fluor EC50
T1 construct: A172+IFNg cells (high IDO expressing cells); endogenous in cells; host or cells: A172 cells induced with 100 ng/ml IFNγ
T1 sequence (P14902 whole entry): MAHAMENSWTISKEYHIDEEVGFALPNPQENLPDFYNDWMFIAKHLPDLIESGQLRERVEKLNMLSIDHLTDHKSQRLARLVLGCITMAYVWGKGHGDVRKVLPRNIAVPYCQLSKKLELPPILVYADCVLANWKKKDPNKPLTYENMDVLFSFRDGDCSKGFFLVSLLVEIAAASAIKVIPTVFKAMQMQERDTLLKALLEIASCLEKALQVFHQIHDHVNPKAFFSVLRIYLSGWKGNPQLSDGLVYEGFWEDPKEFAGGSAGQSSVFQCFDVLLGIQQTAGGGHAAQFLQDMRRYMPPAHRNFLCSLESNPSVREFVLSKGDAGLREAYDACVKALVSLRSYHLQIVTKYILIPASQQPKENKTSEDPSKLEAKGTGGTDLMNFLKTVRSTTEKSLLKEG
Source text: (§1) Cells are counted on a Vi-Cell (Beckman Coulter). […] The final DMSO concentration is 0.5%.

[2] = molecular target: T2, TDO2 (SW48 cells, high TDO expressing cells) (Homo sapiens, UniProt P48775); assay: NFK GreenScreen cell assay, inhibition of TDO in SW48 cells; assay type: cell-based; conditions: read-out: TDO2 Cell Fluor EC50
T2 construct: SW48 cells (high TDO expressing cells); endogenous in cells; host or cells: SW48 cells
T2 sequence (P48775 whole entry): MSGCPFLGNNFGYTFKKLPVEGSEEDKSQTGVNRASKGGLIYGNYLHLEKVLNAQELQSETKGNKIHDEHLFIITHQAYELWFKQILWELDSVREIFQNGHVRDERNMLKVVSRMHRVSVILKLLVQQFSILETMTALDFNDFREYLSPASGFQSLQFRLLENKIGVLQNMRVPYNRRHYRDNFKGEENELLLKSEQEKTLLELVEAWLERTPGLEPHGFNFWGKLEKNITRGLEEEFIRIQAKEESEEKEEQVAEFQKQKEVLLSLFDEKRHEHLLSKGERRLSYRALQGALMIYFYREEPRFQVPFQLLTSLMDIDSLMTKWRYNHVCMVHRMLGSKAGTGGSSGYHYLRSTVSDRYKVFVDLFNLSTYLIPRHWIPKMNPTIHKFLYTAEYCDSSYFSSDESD
Source text: as §1

| pEC50 [1] | pEC50 [2] | Structure (SMILES) |
| --- | --- | --- |
| 5.72 | 4.96 | CC(C)(C)OC(=O)N1[C@@H]2CC[C@H]1C[C@@]1(C[C@H]([C@H]3c4ccccc4-c4cncn43)[C@H]1O)C2 (single isomer, unassigned) [Example 12f] |
| 5.33 | 5.68 | CC(C)(C)OC(=O)N1[C@@H]2CC[C@H]1C[C@]1(C[C@H]([C@@H]3c4ccccc4-c4cncn43)[C@H]1O)C2 (single isomer, unassigned) [Example 12g] |
| 5.15 | 4.89 | CC(C)(C)OC(=O)N1[C@@H]2CC[C@H]1C[C@@]1(C[C@@H]([C@H]3c4ccccc4-c4cncn43)[C@@H]1O)C2 (single isomer, unassigned) [Example 12h] |
| 5.24 | 4.89 | CC(C)(C)OC(=O)N1[C@@H]2CC[C@H]1C[C@@]1(C[C@H]([C@@H]3c4ccccc4-c4cncn43)[C@@H]1O)C2 (single isomer, unassigned) [Example 12i] |
| 6.92 | 6.13 | CC(C)(C)OC(=O)N1[C@@H]2CC[C@H]1C[C@]1(C[C@@H]([C@H]3c4ccccc4-c4cncn43)[C@H]1O)C2 (single isomer, unassigned) [Example 12j] |
| 4.89 | 4.82 | CC(C)(C)OC(=O)N1[C@@H]2CC[C@H]1C[C@@]1(C[C@H]([C@H]3c4ccccc4-c4cncn43)[C@@H]1O)C2 (single isomer, unassigned) [Example 12k] |
| 4.92 | 6.39 | CC(C)(C)OC(=O)N1[C@@H]2CC[C@H]1C[C@]1(C[C@@H]([C@@H]3c4ccccc4-c4cncn43)[C@H]1O)C2 (single isomer, unassigned) [Example 12l] |
| 5.70 | 4.82 | CC(C)(C)OC(=O)N1[C@@H]2CC[C@H]1C[C@@]1(C[C@@H]([C@@H]3c4ccccc4-c4cncn43)[C@@H]1O)C2 (single isomer, unassigned) [Example 12m] |
| 5.14 | 5.48 | O=S1(=O)CCC2(CC[C@H]([C@@H]3c4ccccc4-c4cncn43)[C@@H]2O)CC1 (single isomer, unassigned) [Example 13b] |
| 7.17 | 6.89 | O=S(=O)(C(F)F)N1CCC2(CC1)C[C@@H]([C@H]1c3ccccc3-c3cncn31)[C@H]2O (single isomer, unassigned) [Example 14b] |
| 5.89 | 6.17 | CC(=O)N1CC2(CC[C@H]([C@@H]3c4ccccc4-c4cncn43)[C@H]2O)C1 (single isomer, unassigned) [Example 17] |
| 6.24 | 6.96 | NS(=O)(=O)N1CC2(CC[C@H]([C@@H]3c4ccccc4-c4cncn43)[C@H]2O)C1 (single isomer, unassigned) [Example 18] |
| 7.00 | 7.03 | COCCOC(=O)N1CCC2(CC[C@@H]([C@H]3c4ccccc4-c4cncn43)[C@H]2O)CC1 (single isomer, unassigned) [Example 19] |
| 4.92 | 5.30 | CC(C)(C)OC(=O)N1CC2CCC(C1)C21C[C@@H]([C@H]2c3ccccc3-c3cncn32)[C@H]1O (single isomer, unassigned) [Example 22b] |
| 5.36 | 5.16 | CC(C)(C)OC(=O)N[C@H]1CC[C@@]2(CC1)C[C@H]([C@@H]1c3ccccc3-c3cncn31)[C@H]2O (single isomer, unassigned) [Example 24a] |
| 5.89 | 5.68 | CC(C)(C)OC(=O)N[C@H]1CC[C@@]2(CC1)C[C@@H]([C@H]1c3ccccc3-c3cncn31)[C@@H]2O (single isomer, unassigned) [Example 24b] |
| 5.28 | 6.14 | CC(C)(C)OC(=O)N[C@H]1CC[C@]2(CC1)C[C@H]([C@@H]1c3ccccc3-c3cncn31)[C@H]2O (single isomer, unassigned) [Example 24c] |
| 5.96 | 5.60 | CC(C)(C)OC(=O)N[C@H]1CC[C@@]2(CC1)C[C@@H]([C@@H]1c3ccccc3-c3cncn31)[C@H]2O (single isomer, unassigned) [Example 24d] |
| 5.00 | 4.80 | CC(C)(C)OC(=O)N[C@H]1CC[C@@]2(CC1)C[C@H]([C@H]1c3ccccc3-c3cncn31)[C@@H]2O (single isomer, unassigned) [Example 24e] |

| pEC50 [1] | pEC50 [2] | Structure (SMILES) |
| --- | --- | --- |
| 5.27 | 4.80 | CC(C)(C)OC(=O)N[C@H]1CC[C@]2(CC1)C[C@@H]([C@@H]1c3ccccc3-c3cncn31)[C@@H]2O (single isomer, unassigned) [Example 24h] |
| 6.02 | 6.59 | CC(C)(C)OC(=O)N[C@H]1CC[C@]2(CC1)C[C@H]([C@H]1c3ccccc3-c3cncn31)[C@H]2O (single isomer, unassigned) [Example 24i] |
| 6.19 | 6.85 | CC(C)(C)OC(=O)N[C@H]1CC[C@@]2(CC1)C[C@@H]([C@H]1c3ccccc3-c3cncn31)[C@@H]2O (single isomer, unassigned) [Example 24j] |
| 5.72 | 5.07 | CC(C)(C)OC(=O)N[C@H]1CC[C@@]2(CC1)C[C@@H]([C@H]1c3ccccc3-c3cncn31)[C@H]2O (single isomer, unassigned) [Example 24l] |
| 6.62 | 5.96 | CC(C)(C)OC(=O)N[C@H]1CC[C@]2(CC1)C[C@H]([C@H]1c3ccccc3-c3cncn31)[C@@H]2O (single isomer, unassigned) [Example 24n] |
| 6.04 | 5.48 | CC(C)(C)OC(=O)N[C@H]1CC[C@@]2(CC1)C[C@H]([C@@H]1c3ccccc3-c3cncn31)[C@@H]2O (single isomer, unassigned) [Example 24p] |
| 7.47 | 7.09 | O=C([C@@H]1CC1(F)F)N1CCC2(CC[C@@H]([C@H]3c4ccccc4-c4cncn43)[C@H]2O)CC1 (single isomer, unassigned) [Example 25a] |
| 6.80 | 6.82 | O=C([C@H]1CC1(F)F)N1CCC2(CC[C@@H]([C@H]3c4ccccc4-c4cncn43)[C@H]2O)CC1 (single isomer, unassigned) [Example 25b] |
| 6.66 | 7.02 | CS(=O)(=O)N1CC2(CCC(C3c4ccccc4-c4cncn43)C2O)C1 (single isomer, unassigned) [compound 16, 6-(5H imidazo[5,1-a]isoindol-5-yl)-2-(methylsulfonyl)-2-azaspiro[3.4]octan-5-ol] |
| 5.55 | 5.70 | O=S(=O)(c1c[nH]cn1)N1CCC2(CCC(C3c4ccccc4-c4cncn43)C2O)CC1 (single isomer, unassigned) [compound 59, 8-((1H-imidazol-4-yl)sulfonyl)-2-(5H-imidazo[5,1-a]isoindol-5-yl)-8-azaspiro[4.5]decan-1-ol] |
| 7.40 | 7.25 | O=C(OCC(F)F)N1CCC2(CCC(C3c4ccccc4-c4cncn43)C2O)CC1 (single isomer, unassigned) [compound 60, 2,2-difluoroethyl 1-hydroxy-2-(5H-imidazo[5,1-a]isoindol-5-yl)-8-azaspiro[4.5]decane-8-carboxylate] |
| 6.82 | 6.85 | CS(=O)(=O)N1CC2CCC(C1)C21CC(C2c3ccccc3-c3cncn32)C1O (single isomer, unassigned) [compound 70, 3′(5H-imidazo[5,1-a]isoindol-5-yl)-3-(methylsulfonyl)-3-azaspiro[bicyclo[3.2.1]octane-8,1′-cyclobutan]-2′-ol] |
| 5.60 | 5.49 | O=S(=O)(C1COC1)N1CCC2(CC1)C[C@H](C1c3ccccc3-c3cncn31)[C@@H]2O (stereo in doubt) [Example 23b, (2R,3S)-2-((5S)5H-imidazo[1,5-b]isoindol-5-yl)-7-(oxetan-3-ylsulfonyl)-7-azaspiro[3.5]nonan-3-ol] |
| 6.04 | 5.92 | CC(C)(C)OC(=O)N1[C@@H]2CC[C@H]1C[C@]1(C[C@H]([C@@H]3c4ccccc4-c4cncn43)[C@@H]1O)C2 [Example 12a, tert-butyl (1R,2′S,3r,3′R,5S)-2′-hydroxy-3′-((R)-5H-imidazo[5,1-a]isoindol-5-yl)-8-azaspiro[bicyclo[3.2.]octane-3,1′-cyclobutane]-8-carboxylate] |
| 6.82 | 6.74 | N#CCS(=O)(=O)N1CCC2(CC1)CC(C1c3ccccc3-c3cncn31)C2O (stereo not shown) [Example 21a, 2-[[3-hydroxy-2-(5H-imidazo[,5-b]isoindol-5-yl)-7-azaspiro[3.5]nonan-7-yl]sulfonyl]acetonitrile] |
| 7.12 | 7.00 | N#CCS(=O)(=O)N1CCC2(CC1)C[C@@H]([C@H]1c3ccccc3-c3cncn31)[C@H]2O [Example 21b, (2S,3R)-2-[[3-hydroxy-2-((5S)-5H-imidazo[1,5-b]isoindol-5-yl)-7-azaspiro[3.5]nonan-7-yl]sulfonyl]acetonitrile] |
| 5.32 | 5.23 | N#CCS(=O)(=O)N1CCC2(CC1)C[C@H]([C@@H]1c3ccccc3-c3cncn31)[C@@H]2O [Example 21c, (2R,3S)-2-[[3-hydroxy-2-((5R)-5H-imidazo[1,5-b]isoindol-5-yl)-7-azaspiro[3.5]nonan-7-yl]sulfonyl]acetonitrile] |
| 5.85 | 6.36 | CC(C)(C)OC(=O)N1CC2CCC(C1)C21C[C@@H]([C@@H]2c3ccccc3-c3cncn32)[C@H]1O (stereo partly drawn) [Example 22d, tert-butyl (2′R,3′S)-2′-hydroxy-3′-((R)-5H-imidazo[5,1-a]isoindol-5-yl)-3-azaspiro[bicyclo[3.2.1]octane-8,1′-cyclobutane]-3-carboxylate] |

| Structure (SMILES) | pEC50 [1] | pEC50 [2] |
| --- | --- | --- |
| CP(C)(=O)N1CCC2(CC1)C[C@@H]([C@H]1c3ccccc3-c3cncn31)[C@H]2O (single isomer, unassigned) [Example 15b] | 5.96 | 5.82 |
